In patent US20230278972A1, “SUBSTITUTED HALOALKYL SULFONANILIDE HERBICIDES” (FMC Corporation, priority 2020, published 2023):

Tests used:
Assay type in all cases: in vivo
[1] = system: ragweed (common ragweed, Ambrosia artemisiifolia); test: Test A preemergence, ragweed; conditions: Preemergence; for Plant response rating, Ragweed: 0 to 100 scale (0 no effect, 100 complete control); for Ragweed plant response rating: visual injury on 0 to 100 scale (0 no effect, 100 complete control), approximately 10 days
Method in brief: (§1)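 Greenhouse pot test in a loam–sand blend; compounds delivered in a non-phytotoxic solvent carrying a surfactant, applied either as a directed spray to soil at seeding or over seedlings 2 to 10 cm high with one to two leaves.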

[2] = system: pigweed (Amaranthus retroflexus); test: Test A postemergence, pigweed; conditions: Postemergence, 0 to 100 scale (0 no effect, 100 complete control); for Plant response rating, Pigweed: 125 g ai/ha; for Pigweed plant response rating: 500 g ai/ha, visual injury vs untreated controls after approx. 10 days
Method in brief: as §1

[3] = system: pigweed (Amaranthus retroflexus); test: Test A preemergence, pigweed; conditions: for Plant response rating, Pigweed: 0 to 100 scale (0 no effect, 100 complete control); for Pigweed plant response rating: visual injury on 0 to 100 scale (0 no effect, 100 complete control), approximately 10 days
Method in brief: (§2)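 Barnyardgrass, wheat and galium were treated postemergence at the one- to two-leaf stage (2 to 10 cm) with chemicals formulated in non-phytotoxic solvent plus surfactant, grown in loam soil–sand pots. Pigweed was sown in the same blend and given a preemergence directed soil spray.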

[4] = system: barnyardgrass (Echinochloa crus-galli); test: Test A postemergence, barnyardgrass; conditions: Postemergence, 0 to 100 scale (0 no effect, 100 complete control); for Plant response rating, Barnyardgrass: 125 g ai/ha; for Barnyardgrass plant response rating: 500 g ai/ha, visual injury vs untreated controls after approx. 10 days
Method in brief: as §2

[5] = system: Ryegrass, Italian (Italian ryegrass, Lolium multiflorum); test: Test A preemergence, Ryegrass, Italian; conditions: Preemergence; for Plant response rating, Ryegrass, Italian: 0 to 100 scale (0 no effect, 100 complete control); for Ryegrass, Italian plant response rating: visual injury on 0 to 100 scale (0 no effect, 100 complete control), approximately 10 days
Method in brief: as §1

kochia (Bassia scoparia) [6] = test: Test A preemergence, kochia; conditions: Preemergence; for Plant response rating, Kochia: 0 to 100 scale (0 no effect, 100 complete control); for Kochia plant response rating: visual injury on 0 to 100 scale (0 no effect, 100 complete control), approximately 10 days
Method in brief: as §1

[7] = system: blackgrass (Alopecurus myosuroides); test: Test A postemergence, blackgrass; conditions: Postemergence, 0 to 100 scale (0 no effect, 100 complete control); for Plant response rating, Blackgrass: 125 g ai/ha; for Blackgrass plant response rating: 500 g ai/ha, visual injury vs untreated controls after approx. 10 days
Method in brief: as §1

[8] = system: Ryegrass, Italian (Italian ryegrass, Lolium multiflorum); test: Test A postemergence, Ryegrass, Italian; conditions: Postemergence, 0 to 100 scale (0 no effect, 100 complete control); for Plant response rating, Ryegrass, Italian: 125 g ai/ha; for Ryegrass, Italian plant response rating: 500 g ai/ha, visual injury vs untreated controls after approx. 10 days
Method in brief: as §1

[9] = system: barnyardgrass (Echinochloa crus-galli); test: Test A preemergence, barnyardgrass; conditions: Preemergence; for Plant response rating, Barnyardgrass: 0 to 100 scale (0 no effect, 100 complete control)
Method in brief: as §1

[10] = system: ragweed (common ragweed, Ambrosia artemisiifolia); test: Test A postemergence, ragweed; conditions: Postemergence, 0 to 100 scale (0 no effect, 100 complete control); for Plant response rating, Ragweed: 125 g ai/ha; for Ragweed plant response rating: 500 g ai/ha, visual injury vs untreated controls after approx. 10 days
Method in brief: as §1

[11] = system: wheat (Triticum aestivum); test: Test A postemergence, wheat; conditions: Postemergence, 0 to 100 scale (0 no effect, 100 complete control); for Plant response rating, Wheat: 125 g ai/ha; for Wheat plant response rating: 500 g ai/ha, visual injury vs untreated controls after approx. 10 days
Method in brief: as §2

corn (Zea mays) = test: Test A postemergence, corn; conditions: Postemergence, 0 to 100 scale (0 no effect, 100 complete control); for Plant response rating, Corn: 125 g ai/ha; for Corn plant response rating: 500 g ai/ha, visual injury vs untreated controls after approx. 10 days
Method in brief: as §1

kochia (Bassia scoparia) [12] = test: Test A postemergence, kochia; conditions: Postemergence, 0 to 100 scale (0 no effect, 100 complete control); for Plant response rating, Kochia: 125 g ai/ha; for Kochia plant response rating: 500 g ai/ha, visual injury vs untreated controls after approx. 10 days
Method in brief: as §1

[13] = system: Foxtail, Giant (giant foxtail, Setaria faberi); test: Test A postemergence, Foxtail, Giant; conditions: Postemergence, 0 to 100 scale (0 no effect, 100 complete control); for Plant response rating, Foxtail, Giant: 125 g ai/ha; for Foxtail, Giant plant response rating: 500 g ai/ha, visual injury vs untreated controls after approx. 10 days
Method in brief: as §1

[14] = system: galium (catchweed bedstraw, Galium aparine); test: Test A postemergence, galium; conditions: Postemergence, 0 to 100 scale (0 no effect, 100 complete control); for Plant response rating, Galium: 125 g ai/ha; for Galium plant response rating: 500 g ai/ha, visual injury vs untreated controls after approx. 10 days
Method in brief: as §2

[15] = system: Foxtail, Giant (giant foxtail, Setaria faberi); test: Test A preemergence, Foxtail, Giant; conditions: Preemergence; for Plant response rating, Foxtail, Giant: 0 to 100 scale (0 no effect, 100 complete control); for Foxtail, Giant plant response rating: visual injury on 0 to 100 scale (0 no effect, 100 complete control), approximately 10 days
Method in brief: as §1

[16] = 125 g ai/ha, visual injury, approx. 10 days

Cc1c(NS(=O)(=O)C(F)(F)F)cc(C(=O)N2CCCCC2)c(C)c1F [Compound 191]
Plant response rating, Ragweed [1, 16]: 60
Plant response rating, Ragweed ([1]; 500 g ai/ha): 100
Plant response rating, Pigweed [2]: 20
Pigweed plant response rating [2]: 70
Plant response rating, Pigweed [3, 16]: 100
Plant response rating, Pigweed ([3]; 500 g ai/ha): 100
Plant response rating, Barnyardgrass [4]: 0
Barnyardgrass plant response rating [4]: 30
Plant response rating, Ryegrass, Italian [5, 16]: 70
Plant response rating, Ryegrass, Italian ([5]; 500 g ai/ha): 100
Plant response rating, Kochia (kochia (Bassia scoparia) [6]; [16]): 90
Plant response rating, Kochia (kochia (Bassia scoparia) [6]; 500 g ai/ha): 90
Plant response rating, Blackgrass [7]: 0
Blackgrass plant response rating [7]: 0
Plant response rating, Ryegrass, Italian [8]: 30
Ryegrass, Italian plant response rating [8]: 60
Plant response rating, Barnyardgrass [9, 16]: 100
Plant response rating, Barnyardgrass ([9]; 500 g ai/ha): 100
Plant response rating, Ragweed [10]: 20
Ragweed plant response rating [10]: 60
Plant response rating, Wheat [11]: 30
Wheat plant response rating [11]: 60
Plant response rating, Corn (corn (Zea mays)): 0
Corn plant response rating (corn (Zea mays)): 10
Plant response rating, Kochia (kochia (Bassia scoparia) [12]): 0
Kochia plant response rating (kochia (Bassia scoparia) [12]): 20
Plant response rating, Foxtail, Giant [13]: 0
Foxtail, Giant plant response rating [13]: 20
Plant response rating, Galium [14]: 70
Galium plant response rating [14]: 90
Plant response rating, Foxtail, Giant [15, 16]: 100
Plant response rating, Foxtail, Giant ([15]; 500 g ai/ha): 100

Cc1cc(C)c(C(=O)N2CCC(CC(F)(F)F)CC2)cc1NS(=O)(=O)C(F)(F)F [Compound 234]
Plant response rating, Ragweed [1, 16]: 80
Ragweed plant response rating ([1]; 500 g ai/ha): 90
Plant response rating, Pigweed [2]: 30
Pigweed plant response rating [2]: 60
Plant response rating, Pigweed [3, 16]: 50
Pigweed plant response rating ([3]; 500 g ai/ha): 100
Plant response rating, Barnyardgrass [4]: 60
Barnyardgrass plant response rating [4]: 70
Plant response rating, Ryegrass, Italian [5, 16]: 20
Ryegrass, Italian plant response rating ([5]; 500 g ai/ha): 50
Plant response rating, Kochia (kochia (Bassia scoparia) [6]; [16]): 0
Kochia plant response rating (kochia (Bassia scoparia) [6]; 500 g ai/ha): 30
Plant response rating, Blackgrass [7]: 0
Blackgrass plant response rating [7]: 0
Plant response rating, Ryegrass, Italian [8]: 0
Ryegrass, Italian plant response rating [8]: 0
Plant response rating, Barnyardgrass [9, 16]: 80
Plant response rating, Barnyardgrass ([9]; 500 g ai/ha): 80
Plant response rating, Ragweed [10]: 30
Ragweed plant response rating [10]: 50
Plant response rating, Wheat [11]: 0
Wheat plant response rating [11]: 0
Plant response rating, Corn (corn (Zea mays)): 0
Corn plant response rating (corn (Zea mays)): 0
Plant response rating, Kochia (kochia (Bassia scoparia) [12]): 0
Kochia plant response rating (kochia (Bassia scoparia) [12]): 0
Plant response rating, Foxtail, Giant [13]: 0
Foxtail, Giant plant response rating [13]: 50
Plant response rating, Galium [14]: 10
Galium plant response rating [14]: 80
Plant response rating, Foxtail, Giant [15, 16]: 50
Foxtail, Giant plant response rating ([15]; 500 g ai/ha): 50

Cc1cc(C)c(C(=O)N(C)CC2CC2)cc1NS(=O)(=O)C(F)(F)F [Compound 107]
Ragweed plant response rating ([1]; 125 g ai/ha): 50
Plant response rating, Ragweed ([1]; 500 g ai/ha): 80
Plant response rating, Pigweed ([2]; visual injury approx. 10 days): 50
Pigweed plant response rating [2]: 60
Pigweed plant response rating ([3]; 125 g ai/ha): 80
Plant response rating, Pigweed ([3]; 500 g ai/ha): 90
Plant response rating, Barnyardgrass ([4]; visual injury approx. 10 days): 70
Barnyardgrass plant response rating [4]: 90
Ryegrass, Italian plant response rating ([5]; 125 g ai/ha): 60
Plant response rating, Ryegrass, Italian ([5]; 500 g ai/ha): 90
Kochia plant response rating (kochia (Bassia scoparia) [6]; 125 g ai/ha): 0
Plant response rating, Kochia (kochia (Bassia scoparia) [6]; 500 g ai/ha): 50
Plant response rating, Blackgrass ([7]; visual injury approx. 10 days): 0
Blackgrass plant response rating [7]: 30
Plant response rating, Ryegrass, Italian ([8]; visual injury approx. 10 days): 0
Ryegrass, Italian plant response rating [8]: 30
Barnyardgrass plant response rating ([9]; 125 g ai/ha, visual injury on 0 to 100 scale (0 no effect, 100 complete control), approximately 10 days): 90
Plant response rating, Barnyardgrass ([9]; 500 g ai/ha): 100
Plant response rating, Ragweed ([10]; visual injury approx. 10 days): 70
Ragweed plant response rating [10]: 90
Plant response rating, Wheat ([11]; visual injury approx. 10 days): 0
Wheat plant response rating [11]: 40
Plant response rating, Corn (corn (Zea mays); visual injury approx. 10 days): 0
Corn plant response rating (corn (Zea mays)): 80
Plant response rating, Kochia (kochia (Bassia scoparia) [12]; visual injury approx. 10 days): 20
Kochia plant response rating (kochia (Bassia scoparia) [12]): 40
Plant response rating, Foxtail, Giant ([13]; visual injury approx. 10 days): 10
Foxtail, Giant plant response rating [13]: 50
Plant response rating, Galium ([14]; visual injury approx. 10 days): 90
Galium plant response rating [14]: 90
Foxtail, Giant plant response rating ([15]; 125 g ai/ha): 60
Plant response rating, Foxtail, Giant ([15]; 500 g ai/ha): 100
